Measured values published in patent US20260364213A1, “RADIOLABELED COMPOUNDS OF TRIMETHOPRIM AND USES THEREOF” (THE TRUSTEES OF THE UNIVERSITY OF PENNSYLVANIA, priority 2023, published 2026).
Several values for one entry are separate records, joined by “and”; a condition that tells them apart may be missing. Equal values may be shown once. Entries after “also recorded” stand apart in the source; their conditions may differ. Read-outs that look alike come from different tables or passages of the source.

Columns and labels:
[1] = system: I45 and SKOV3 cells; test: Cytotoxicity in wild-type and eDHFR-YFP-expressing I45 and SKOV3 cells; format: cell-based, human
Method: After 72 hours of incubation, the surviving fraction of the cells was quantified using CellTiter-Glo (Promega #G9243). See, Makvandi, Molecular cancer therapeutics. […] The assay was performed three times in triplicates. […] See, Lee, Journal of nuclear medicine.

[2] = target: T1, eDHFR-YFP (Escherichia coli, UniProt P0ABQ4); test: Radioligand binding to eDHFR-YFP expressing cells; design: species or system E. coli; conditions: read-out: Kd
T1 sequence (P0ABQ4 1-159): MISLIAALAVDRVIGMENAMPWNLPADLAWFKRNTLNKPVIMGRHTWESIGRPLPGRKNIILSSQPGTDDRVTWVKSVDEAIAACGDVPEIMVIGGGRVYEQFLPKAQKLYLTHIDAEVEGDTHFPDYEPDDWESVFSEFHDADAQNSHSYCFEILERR
Method: Due to the high specific activity of [^211At]At-TMP that limits its working concentration to pM range, [^125I]I-TMP was used for saturation binding studies to determine Bmax.
eDHFR-YFP-positive I45 and SKOV3 cells were plated on 96-well plates (Corning #9102) at the density of 25,000 cells/well and 40,000 cells/well, respectively, in complete growth media 24 hours before the assay. […] After incubation at 37 °C for 90 minutes, the wells were aspirated and washed twice with ice-cold PBS. The radioactivity in each well was measured with a Perkin Elmer Wizard gamma counter. The assay was performed three times in triplicates. […] See, Swillens, Molecular pharmacology. 1995; 47(6):1197-203. The corresponding EC50 values were plotted against the receptor concentration/2 to determine the Kd. See, Hulme, British journal of pharmacology. 2010; 161(6):1219-37. The Bmax values were correlated with the total YFP florescence from the wells, with a correction factor of 2.5 and 2.2 for membrane-bound eDHFR-YFP in I45 and SKOV3, respectively, in order to account for decreased fluorescence per molecule from addition of the membrane localization signal to YFP. See, Wu, Science. 2005; 310(5746):310-4; and Bakholdina, Molecules. 2021; 26(13).
For determination of the Kd of [^211At]At-TMP, the binding assay protocol was repeated in I45 and SKOV3 cells expressing cytoplasmic eDHFR-YFP, using 150 μL of 0.06-60 nM [^125I]I-TMP±10 μM TMP for half of each 96-well plate and 50-260 μL of […] [^211At]At-TMP±10 μM TMP for the remaining half. The Bmax of each plate determined from [^125I]I-TMP binding was divided by the assay volumes used for [^211At]At-TMP to calculate the total receptor concentration ([RT]) in each [^211At]At-TMP well. The ligand depletion (δ) in each [^211At]At-TMP well was obtained by dividing the bound radioactivity by total added radioactivity. The assay was performed four times in triplicates. As derived in Supplemental Methods 1, δ^−1 was plotted against [RT]^−1 to determine the Kd as the slope of the linear best-fit line.
Supplemental Method 1. Measurement of the dissociation constant (Kd) of [^211At]At-TMP binding to eDHFR under non-saturating, ligand-depleting conditions. When [Ligand]<<Kd, ligand depletion (6) at equilibrium is
where [R] is the free receptor concentration and [RT]is the total receptor concentration. Since 6 is non-zero, taking the reciprocal of both sides of the equation yields
[formula] • If a δ^−1 vs. [RT]^−1 graph where y=δ^−1 and x=[RT]^−1 is plot,
Therefore, the slope of the linear best-fit line represents the Kd and the y-intercept is 1.

[3] = target: T2, eDHFR (Escherichia coli, UniProt P0ABQ4); conditions: HEK293T-eDHFR-YFP vs HEK 293 WT; 0.037 MBq, 1 hour; 60 min
T2 sequence (P0ABQ4 1-159): T1 sequence (P0ABQ4 1-159)

[4] = system: OVCAR8-eDHFR-Luc cells; test: Kill assay (MTT) in OVCAR8-eDHFR-Luc cells; format: cell-based, human; conditions: 18.5 MBq, 1 h; viability to day 12
Method: Following the same uptake protocol till washing after the third wash the cells were counted using cell counter and they were diluted to generate even number of cells/mL. […] We've applied the same blocked conditions used in the uptake assay. […] Then cells will be re-distributed into 96 well plates (2,000 cells/well) with fresh media to monitor cell proliferation by MTT assay on days 1, 3, 7 and 10. A total of 9 wells (3×3) were measured on the plate per sample per time point. To complete the assay cell media was removed and replaced with 50 μL of serum free media and 50 μL of MTT reagent. The plates were covered with tin foil and incubated at 37 °C for 3 hours. The plates were shaken at 200 rpm at 37 °C for 15 min. Using the microplate plate reader, sample absorbance was measured at 590 nm for 600 ms. Controls included [^131I]NaI treated cells and blocking with 10 μM parent TMP (unlabeled). An analogous procedure was used for the OVCAR8-eDHFR-Luc kill assay with different doses (1.85-37 MBq) and treatment times.
To investigate the therapeutic potential of m[^131I]mI-TMP 5b in tumor cell lines, OVCAR8 eDHFR+ cells were exposed to varying doses (ranging from 1.85-37 MBq) of the radiotracer of 5b at different incubation times. Different conditions were employed to assess the selective therapeutic effect of the radio tracer on eDHFR+ cells. To determine the specific killing of eDHFR+ tumor cells, blocked conditions were analyzed. The cell viability of compound 5b-treated cells was also compared with the cells exposed to [^131I]I—Na. Additionally, untreated cells were used as controls. The MTT assay was used to measure the cell viability of the cells under the aforementioned conditions on days 1, 3, 7, and 12.
OVCAR8-eDHFR-Luc+ cells were treated with 1.85 and 18.5 MBq of m[^131I]mI-TMP 5b and [^131I]I—Na, incubated for 1 hour. […] The cell viability of the compound 5b-treated cells was similar to cells under blocked, [^131I]NaI, and no drug conditions. See, FIG. 2A. […] See, FIG. 2B. Based on the results obtained, a continued dose escalation was considered to better understand the therapeutic window. Finally, OVCAR_eDHFR+ cells were tested with 37 MBq dose of m[^131I]mI-TMP.

[5] = In vitro stability in RPMI 1640 medium; format: physicochemical; conditions: 37 °C, up to 6 hours, radio-HPLC
Method: The specific activity of [^211At]At-TMP and [^125I]I-TMP was determined by comparison of radioactivity to the area under 288-nm ultraviolet light peak on radio-HPLC. The in vitro stability of [^211At]At-TMP was examined with incubation in Roswell Park Memorial Institute (RPMI) 1640 medium at 37 °C for up to 6 hours, followed by radio-HPLC analysis.

[6] = system: IMR5 cells; test: Cytotoxicity in IMR5 cells with subcellular eDHFR-YFP; format: cell-based, human
Method: Using standard cloning procedures and DNA sequence synthesis, the recombinant eDHFR protein was modified in the following ways. First, the eDHFR nucleotide sequence was extended with a yellow fluorescent protein (YFP) domain at the C-terminus to construct a fusion eDHFR-YFP protein. See, Sellmyer, Mol Ther 2020; 28:42-51. Then, one of the following localization domains was added: simian virus 40 nuclear localization signal (NLS) at the N-terminus, human immunodeficiency virus Rev protein nuclear export signal (NES) at the C-terminus, and Saccharolobus solfataricus P2 DNA-binding domain 7d (DNAB) at the N-terminus. See, Kobayashi, Antimicrob Agents Chemother 2006; 50:1118-1119; and Kalichuk, Sci Rep 2016; 6:37274. The resulting library of pUC57 plasmids, each containing one of NLS-eDHFR-YFP, eDHFR-YFP-NES, and DNAB-eDHFR-YFP, were successfully cloned into a lentiviral vector. The lentiviral plasmids were introduced into HEK293T cells for viral production and isolation.
Then, three human cancer cell lines were cultured: HCT116 (colorectal cancer), IMR5 (neuroblastoma), and SKOV3 (ovarian cancer). They were transfected with the three lentiviral constructs for expression of NLS-eDHFR-YFP, eDHFR-YFP-NES, and DNAB-eDHFR-YFP, resulting in nine cell lines in total. Subcellular localization of eDHFR-YFP in the cell lines was verified with fluorescence microscopy.
Cytotoxicity experiments were performed as follows: wild-type IMR5 cells as well as those expressing eDHFR-YFP localized to the DNA, nucleus, and cytoplasm were treated with various concentrations of ^211At-PAB-TMP for 72 hours. The survival fraction for each treatment condition was measured with luminescent cell viability assay.
The resulting survival vs. dose curves were analyzed to determine effective concentrations for 50% reduction in cell viability (EC50). See, FIGS. 16A-16C. […] See, FIGS. 16A-16C. […] 6; 20(7): 1752-1755.

[7] = target: T2, eDHFR; format: cell-based; conditions: for affinity for eDHFR binding in cells: HCT116 cells, non-radiolabeled, vs para-benzyl-iodo-TMP; for EC50: read-out: EC50 for eDHFR binding, HCT-116 cells, tsLuc-DD-DHFR, compounds not radiolabeled
[8] = Serum stability in FBS; format: in vitro ADME; conditions: non-radioactive compound, FBS, 37 °C, 72 h
Method: In vitro serum stability of was performed by adding the [^131I]mI-TMP (50 μL, 1.85 MBq) to fetal bovine serum (500 μL). The mixture was then incubated in a ThermoMixer (800 rpm) at 37 °C, and deiodination was analyzed by radio-TLC (10% NH40Ac:MeOH=3:7) at 0, 24, and 72 h. In this condition, free I-131 moved to solvent front whereas intact [^131I]I-TMP remained at the origin.

[9] = target: T2, eDHFR; test: Differential scanning fluorimetry (thermal shift assay); format: binding; conditions: 0.1 mg/mL protein, 10 mM stock compound, 20-95 °C ramp
Method: Purified protein is diluted to 0.1 mg/mL protein in 500 μL in mild buffer, 25 mM HEPES pH=7.5, 200-500 mM NaCl, DTT. 17 μL of the 0.1 mg/mL protein sample is aliquoted into an opaque white 384 well PCR plate. Then 2 μL of stabilizing additive or 1 μL additive and 1 μL of concentrated drug (10 mM TMP or 10 mM cold mI-TMP or vehicle, plus 1 μL of 1×SYPRO Orange dye was added and the total well volume is 20 μL. The plate is sealed with clear optical cover, protect it from light with foil, and let it incubate for 5 minutes. Then the plate is centrifuged at 3,600×g for 2 minutes. The plate is analyzed on RT-PCR machine using a temperature-ramp method that ranges from 20-95 °C.

Compound: COc1cc(Cc2cnc(N)nc2N)cc(OC)c1OC [TMP, trimethoprim]
- cytotoxicity at the lowest TMP concentration ([1]; 40 μM, all cell types): non-toxic
- cytotoxicity from non-radiolabeled TMP in cells expressing membrane-bound eDHFR-YFP ([1]; 72 h): higher cytotoxicity

Compound: COc1cc(Cc2cnc(N)nc2N)cc([125I])c1OC [[^125I]mI-TMP, 5-(3-iodo-4,5-dimethoxybenzyl)pyrimidine-2,4-diamine]
- Kd ([2]; I45 cells): 0.65 ± 0.11 nM
- Kd ([2]; SKOV3 cells): 0.13 ± 0.17 nM
- uptake of the radiotracer in eDHFR+ cells relative to WT cells [3]: ~ 50 fold and ~ 30 fold

Compound: [131I-].[Na+] [[^131I]I—Na, reference compound]
- cytotoxic effect / cell viability [4]: showed viability and significant growth

Compound: COc1cc(Cc2cnc(N)nc2N)cc([211At])c1OC [[^211At]At-TMP]
- in vitro stability in aqueous media [5]: stability of [^211At]TMP in aqueous media for up to 6 hours

Compound: COc1cc(Cc2cnc(N)nc2N)cc(OC)c1OCc1ccc([211At])cc1 [^211At-PAB-TMP, ^211At-para-astatobenzyl-trimethoprim]
- cytotoxicity by eDHFR-YFP subcellular location ([6]; IMR5 cells, 72 hours, luminescent viability): Higher cytotoxicity was seen with increasing proximity to DNA, resulting in significantly lower EC50 values; also recorded: highest in the IMR5 cells expressing DNA-bound eDHFR-YFP, followed by nuclear and cytoplasmic eDHFR-YFP

Compound: O=C1NCCn2c(-c3ccc([211At])cc3)nc3cccc1c32 [^211At-PTT, reference compound]
- difference in cytotoxicity among the eDHFR IMR5 cells ([6]; positive control): no difference in cellular toxicity; also recorded: did not result in difference in cytotoxicity among the IMR5 cells

Compound: COc1cccc2c1C(=O)c1c(O)c3c(c(O)c1C2=O)C[C@@](O)(C(=O)CO)C[C@@H]3O[C@H]1C[C@H](N)[C@H](O)[C@H](C)O1 [doxorubicin, reference compound]
- cytotoxicity of doxorubicin, wild-type vs eDHFR-YFP-expressing cells ([1]; 72 h, 10 nM-1 μM): comparable cytotoxicity; also recorded: comparable chemosensitivity

Compound: COc1cc(Cc2cnc(N)nc2N)cc(Br)c1OC [mBr-TMP]
- affinity for eDHFR binding in cells [7]: higher affinity for eDHFR binding in cells than the para-benzyl-iodo-TMP
- EC50 [7]: 5 nM

Compound: COc1cc(Cc2cnc(N)nc2N)cc(I)c1OC [mI-TMP, 5-(3-iodo-4,5-dimethoxybenzyl)pyrimidine-2,4-diamine]
- stability in FBS by LCMS [8]: confirmed the stability of TMP-I (3a) in FBS
- stabilization of eDHFR in thermal shift assay (DSF) [9]: stabilizes eDHFR as TMP
- stabilization of eDHFR in thermal shift assay (DSF) ([9]; listed as TMP-I (3b)): strongly stabilizes eDHFR, similar to TMP
- affinity for eDHFR binding in cells [7]: higher affinity for eDHFR binding in cells than the para-benzyl-iodo-TMP
- EC50 [7]: 5 nM

Compound: ^211At-para-astatobenzyl-trimethoprim [^211At-PAB-TMP]
- killing of eDHFR expressing neuroblastoma cells [6]: enhanced killing of eDHFR expressing neuroblastoma cells
